# Laboratory results: PMC6133092, “Synthesis of 2-alkylthio-N-(quinazolin-2-yl)benzenesulfonamide derivatives: anticancer activity, QSAR studies, and metabolic stability” (Monatshefte Fur Chemie, 2018)
# Legend:
# MCF-7 (breast cancer) = assay: MTT cell viability assay, MCF-7; format: cell-based, human; settings: mean ± SD
# Experimental: All of the newly synthesized compounds 9–24 were evaluated for their effects on cell viability in three human cancer cell lines: HCT-116 (colon cancer), HeLa (cervical cancer), and MCF-7 (breast cancer). Cisplatin was used as reference drug. […] Considering the activity of derivatives 9–12, 15, 17, 18, and 21–24, it can be noticed that phenyl group as R^3 bring an increase of cytotoxicity in comparison with methyl in place of R^3. However, this impact seems to be the most important for compounds with the bulky group in R^1 and generally, it is less for a set of derivatives with methyl group substituted in R^1 (9–12).
# (§1) All chemicals, if not stated otherwise, were obtained from Sigma-Aldrich (St. Louis, MO, USA). The MCF-7 and HeLa cell lines were purchased from Cell Lines Services (Eppelheim, Germany), the HCT-116 cell line was purchased from ATCC (ATCC-No: CCL-247). Cells were cultured in Dulbecco’s modified Eagle’s medium (DMEM) supplemented with 10% fetal bovine serum, 2 mM glutamine, 100 units/cm^3 penicillin, and 100 μg/cm^3 streptomycin. Cultures were maintained in a humidified atmosphere with 5% CO2 at 37 °C in an incubator (Heraceus, HeraCell).
# (§2) Cell viability was determined using the MTT (3-(4,5-dimethylthiazol-2-yl)-2,5-diphenyltetrazolium bromide) assay. Cells were seeded in 96-well plates at a density of 5 × 10^3 cells/well and treated for 72 h with the examined compounds in the concentration range 1–100 μM (1, 10, 25, 50, and 100 μM). Following treatment, MTT (0.5 mg/cm^3) was added to the medium and cells were further incubated for 2 h at 37 °C. Cells were lysed with DMSO and the absorbance of the formazan solution was measured at 550 nm with a plate reader (Victor, 1420 multilabel counter). […] The experiment was performed in triplicate. Values are expressed as the mean ± SD of at least three independent experiments.
# NCI-H522 = assay: NCI-60 single dose screen, NCI-H522; format: cell-based; settings: Homo sapiens, NSCLC, single concentration 10^−5 M, read-out: IGP (inhibition growth percent) NCI-H522
# Experimental: (§3) Aside from above, compounds 9–14 and 17–24 were also submitted to National Cancer Institute and evaluated for the cytotoxic effects toward 60 cell lines at a single dose of 10 μM (Table 2). […] As it was summarized in Table 2, leukemia RPMI-8226 and NSCLC A549/ATCC were most sensitive to compounds 18, 22, and 24. These derivatives in 10 μM concentration inhibited the growth of approximately 50% cells belonging to the above mention cell lines.
# (§4) Cytotoxicity evaluation of compounds 9–14 and 17–24 was performed at the National Cancer Institute according to NCI-60 DTP human tumor cell line screen procedure.
# UO-31 = assay: NCI-60 single dose screen, UO-31; format: cell-based; settings: Homo sapiens, Renal cancer, single concentration 10^−5 M, read-out: IGP (inhibition growth percent) UO-31
# Experimental: as §3, §4
# SR = assay: NCI-60 single dose screen, SR; format: cell-based; settings: Homo sapiens, Leukemia, single concentration 10^−5 M, read-out: IGP (inhibition growth percent) SR
# Experimental: as §3, §4
# [1] = Metabolic stability in human liver microsomes with NADPH; format: in vitro ADME; settings: pooled human liver microsomes, pH 7.4, human liver microsomes 0.5 mg/cm^3, NADPH 1 mM, 10 μM compound, 37 °C, read-out: in vitro metabolic half-life t1/2
# Experimental: Selected derivatives were submitted to metabolic stability study to assess their ability to remain unchanged in the presence of human metabolic enzymes. Human liver microsomes were used as they are a rich source of all common CYP isoenzymes. In vitro incubations were performed in the presence of NADPH as a cofactor and the disappearance of a derivative was followed using LC–MS technique. The in vitro metabolic half-life values are gathered in Fig. 3.
# Stock solutions of studied compounds were prepared at concentration of 10 mM in DMSO. […] Incubation mixture contained 10 μM of a studied derivative, 1 mM of NADPH (Sigma-Aldrich) and 0.5 mg/cm^3 of pooled human liver microsomes (HLM, Sigma-Aldrich) in potassium phosphate buffer (0.1 M, pH 7.4). Incubation was carried out in thermostat at 37 °C and started by addition of studied compound. 50 mm^3 samples were taken at starting point and after 5, 15, 30, 45, and 60 min. Enzymatic reaction was terminated by the addition of the equal volume of ice-cold acetonitrile. Incubations were performed in triplicates, the average t1/2 and standard deviation was calculated. Control incubations were performed without NADPH to assess chemical instability. After collection, samples were immediately centrifuged (10 min, 10,000 rpm) and resulted supernatant was directly analyzed or kept in − 80 °C until LC–MS analysis. Natural logarithm of a compound over IS peak area ratio was plotted versus incubation time. Metabolic half-time (t1/2) was calculated from the slope of the linear regression.
# LC–MS analysis was performed on an Agilent 1260 system coupled to SingleQuad 6120 mass spectrometer (Agilent Technologies, Santa Clara, CA, USA). Poroshell EC-C18 (2.1 mm × 150 mm, 2.7 μm, Agilent Technologies, Santa Clara, CA, USA) was used in reversed-phase mode with gradient elution starting with 5% of phase A (10 mM ammonium formate in water) and 95% of phase B (10 mM ammonium formate in acetonitrile–water mixture, 95:5 v/v). […] Total analysis time was 15 min at 40 °C, flow rate was 1 cm^3/min and the injection volume was 5 mm^3. The mass spectrometer was equipped with electrospray ion source and operated in positive ionization. Mass analyzer was set individually to each compound to detect [M+H]^+ protonated molecule. MSD parameters of the ESI source were as follows: nebulizer pressure 35 psig (N2), drying gas […] (N2), drying gas temperature 300 °C, capillary voltage 3 kV, fragmentor voltage 150 V.
# PC-3 = assay: NCI-60 single dose screen, PC-3; format: cell-based; settings: Homo sapiens, Prostate cancer, single concentration 10^−5 M, read-out: IGP (inhibition growth percent) PC-3
# Experimental: as §3, §4
# HOP-92 = assay: NCI-60 single dose screen, HOP-92; format: cell-based; settings: Homo sapiens, NSCLC, single concentration 10^−5 M, read-out: IGP (inhibition growth percent) HOP-92
# Experimental: as §3, §4
# HeLa (cervical cancer) = assay: MTT cell viability assay, HeLa; format: cell-based; settings: Homo sapiens
# Experimental: as §1, §2
# HCT-116 (colon cancer) = assay: MTT cell viability assay, HCT-116; format: cell-based; settings: Homo sapiens, 72 h, mean ± SD
# Experimental: as §1, §2
# MOLT-4 = assay: NCI-60 single dose screen, MOLT-4; format: cell-based; settings: Homo sapiens, Leukemia, single concentration 10^−5 M, read-out: IGP (inhibition growth percent) MOLT-4
# Experimental: as §3, §4
# MCF-7 = assay: NCI-60 single dose screen, MCF-7; format: cell-based; settings: Homo sapiens, MCF7; Breast cancer; single concentration 10^−5 M; read-out: IGP (inhibition growth percent) MCF-7
# Experimental: as §3, §4
# EKVX = assay: NCI-60 single dose screen, EKVX; format: cell-based; settings: Homo sapiens, NSCLC, single concentration 10^−5 M, read-out: IGP (inhibition growth percent) EKVX
# Experimental: as §3, §4
# RPMI-8226 = assay: NCI-60 single dose screen, RPMI-8226; format: cell-based; settings: Homo sapiens, RPMI-8226, Leukemia; single concentration 10^−5 M; read-out: IGP (inhibition growth percent) RPMI-8226
# Experimental: as §3, §4
# UACC-62 = assay: NCI-60 single dose screen, UACC-62; format: cell-based; settings: Homo sapiens, Melanoma, single concentration 10^−5 M, read-out: IGP (inhibition growth percent) UACC-62
# Experimental: as §3, §4
# A549/ATCC = assay: NCI-60 single dose screen, A549/ATCC; format: cell-based; settings: Homo sapiens, A549, NSCLC; single concentration 10^−5 M; read-out: IGP (inhibition growth percent) A549/ATCC
# Experimental: as §3, §4
# HCT-116 = assay: NCI-60 single dose screen, HCT-116; format: cell-based; settings: Homo sapiens, Colon cancer, single concentration 10^−5 M, read-out: IGP (inhibition growth percent) HCT-116
# Experimental: as §3, §4
# [2] = Table 4, repeats Table 1 values without SD and unit
SMILES,half-life at 10 μM [1] [min],"IC50 (MCF-7 (breast cancer); Homo sapiens, MCF7, 72 h) [µM]","IC50 (HeLa (cervical cancer); MTT, 72 h, mean ± SD) [µM]",IC50 (HeLa (cervical cancer); [2]) [µM],IC50 (HCT-116 (colon cancer)) [µM],IC50 (MCF-7 (breast cancer); 72 h) [µM],inhibition at 10 µM (NCI-H522) [%],inhibition at 10 µM (UO-31) [%],inhibition at 10 µM (SR) [%],inhibition at 10 µM (PC-3) [%],inhibition at 10 µM (HOP-92) [%],inhibition at 10 µM (MOLT-4) [%],inhibition at 10 µM (MCF-7) [%],inhibition at 10 µM (EKVX) [%],inhibition at 10 µM (RPMI-8226) [%],inhibition at 10 µM (UACC-62) [%],inhibition at 10 µM (A549/ATCC) [%],inhibition at 10 µM (HCT-116) [%]
"N.N.[Cl][Pt][Cl] [Cisplatin, reference compound]",–,–,–,–,–,3 ± 0.1,–,–,–,–,–,–,–,–,–,–,–,–
"Cc1cc(S(=O)(=O)Nc2nc(C)c3ccccc3n2)c(SCc2cc3c(cc2Cl)OCO3)cc1Cl [Compound 11, 4-Chloro-2-(6-chlorobenzo[1,3]dioxol-5-ylmethylthio)-5-methyl-N-(4-methylquinazolin-2-yl)benzenesulfonamide]",56.8,57 ± 2,58 ± 2,58,46 ± 1,–,19,15,3,23,–,20,4,17,32,23,34,30
"Cc1nc(NS(=O)(=O)c2cc(C(=O)Nc3ccc(Cl)cc3)c(Cl)cc2SCC(N)=O)nc2ccccc12 [Compound 19, 2-Carbamoylmethylthio-4-chloro-5-(4-chlorophenylcarbamoyl)-N-(4-methylquinazolin-2-yl)benzenesulfonamide]",–,105 ± 3,117 ± 5,117,100 ± 4,–,8,7,4,4,8,3,4,–,3,–,–,4
"NC(=O)CSc1cc(Cl)c(C(=O)Nc2ccc(Cl)cc2)cc1S(=O)(=O)Nc1nc(-c2ccccc2)c2ccccc2n1 [Compound 20, 2-Carbamoylmethylthio-4-chloro-5-(4-chlorophenylcarbamoyl)-N-(4-phenylquinazolin-2-yl)benzenesulfonamide]",49.7,92 ± 1,110 ± 7,110,140 ± 4,–,11,3,6,2,4,5,3,–,10,8,–,–

# Continued, in another order:
half-life at 10 μM [1] [min],"IC50 (MCF-7 (breast cancer); Homo sapiens, MCF7, 72 h) [µM]","IC50 (HeLa (cervical cancer); MTT, 72 h, mean ± SD) [µM]",IC50 (HeLa (cervical cancer); [2]) [µM],IC50 (HCT-116 (colon cancer)) [µM],SMILES,IC50 (MCF-7 (breast cancer); 72 h) [µM],inhibition at 10 µM (NCI-H522) [%],inhibition at 10 µM (UO-31) [%],inhibition at 10 µM (SR) [%],inhibition at 10 µM (PC-3) [%],inhibition at 10 µM (HOP-92) [%],inhibition at 10 µM (MOLT-4) [%],inhibition at 10 µM (MCF-7) [%],inhibition at 10 µM (EKVX) [%],inhibition at 10 µM (RPMI-8226) [%],inhibition at 10 µM (UACC-62) [%],inhibition at 10 µM (A549/ATCC) [%],inhibition at 10 µM (HCT-116) [%]
51.9,100 ± 2,75 ± 5,75,61 ± 1,"Cc1cc(S(=O)(=O)Nc2nc(C)c3ccccc3n2)c(SCc2ccccc2)cc1Cl [Compound 9, 2-Benzylthio-4-chloro-5-methyl-N-(4-methylquinazolin-2-yl)benzenesulfonamide]",–,9,27,6,2,3,12,2,3,15,29,–,–
90.8,155 ± 9,120 ± 1,–,85 ± 3,"Cc1cc(S(=O)(=O)Nc2nc(-c3ccccc3)c3ccccc3n2)c(SCC(N)=O)cc1Cl [Compound 14, 2-Carbamoylmethylthio-4-chloro-5-methyl-N-(4-phenylquinazolin-2-yl)benzenesulfonamide]",–,4,2,17,–,–,9,–,–,–,–,–,–
16,175 ± 10,72 ± 1,72,84 ± 3,"Cc1nc(NS(=O)(=O)c2cc(C(=O)Nc3ccccc3)c(Cl)cc2SCc2ccccc2)nc2ccccc12 [Compound 17, 2-Benzylthio-4-chloro-5-phenylcarbamoyl-N-(4-methylquinazolin-2-yl)benzenesulfonamide]",–,12,24,12,3,20,9,–,18,22,14,11,5
35,97 ± 2,75 ± 2,75,70 ± 1,"Cc1ccc(NC(=O)c2cc(S(=O)(=O)Nc3nc(C)c4ccccc4n3)c(SCc3ccccc3)cc2Cl)cc1 [Compound 23, 2-Benzylthio-4-chloro-5-(4-methylphenylcarbamoyl)-N-(4-methylquinazolin-2-yl)benzenesulfonamide]",–,–,21,8,18,–,5,8,15,17,–,6,–
